From the supplement of paper PMC11061612

Key:
[1] = tested on: SW1463 (Colorectal Carcinoma); assay: combination Emax (second highest fraction inhibited in the dose matrix, 72 h); higher = more inhibition; extreme values may be limits of the assay
Outline: (§1)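 After 24 hours at 37°C and 5% CO2 in 1536-well plates, cells in DMEM/F12 or RPMI plus 10% FBS received two-drug dose matrices for 72 hours. Viability came from CellTiter-Glo 2.0 luminescence and was scaled as inhibition, anchored at 0 by vehicle wells and at 1 by blank wells. Combination Emax is taken as the second-highest inhibition in the matrix, and Bliss excess as the observed combination effect less EA + EB − EA·EB, with EA and EB the single-agent effects.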

[2] = tested on: OVKATE (Ovarian Carcinoma); assay: as above
Outline: as §1

MG-63 (Osteosarcoma) = assay: as above
Outline: as §1

[3] = tested on: SNU-1 (Gastric Carcinoma); assay: as above
Outline: as §1

[4] = tested on: MRK-nu-1 (Breast Carcinoma); assay: as above
Outline: as §1

[5] = tested on: NCI-H2023 (Non-Small Cell Lung Carcinoma); assay: as above
Outline: as §1

A375 (Melanoma) = assay: as above
Outline: as §1

[6] = tested on: NCI-H1648 (Lung Adenocarcinoma); assay: as above
Outline: as §1

[7] = tested on: NCI-H1048 (Small Cell Lung Carcinoma); assay: as above
Outline: as §1

[8] = tested on: HT-3 (Cervical Carcinoma); assay: as above
Outline: as §1

[9] = tested on: JJN-3 (Plasma Cell Myeloma); assay: as above
Outline: as §1

[10] = tested on: SBC-3 (Small Cell Lung Carcinoma); assay: as above
Outline: as §1

[11] = tested on: CAL-85-1 (Breast Carcinoma); assay: as above
Outline: as §1

[12] = tested on: NCI-H2009 (Lung Adenocarcinoma); assay: Bliss excess, mean over the matrix (fraction); higher = more synergy
Outline: as §1

[13] = tested on: RPMI-8402 (T-Lymphoblastic Leukemia); assay: as above
Outline: as §1

[14] = tested on: SNU-1 (Gastric Carcinoma); assay: as above
Outline: as §1

[15] = tested on: JURL-MK1 (Chronic Myelogenous Leukemia); assay: as above
Outline: as §1

SK-MEL-24 (Melanoma) = assay: as above
Outline: as §1

[16] = tested on: NCI-H1648 (Lung Adenocarcinoma); assay: as above
Outline: as §1

[17] = tested on: NCI-H1975 (Lung Adenocarcinoma); assay: as above
Outline: as §1
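For Bliss excess, mean over the matrix in this document: after 72 h of two-drug dosing.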

Compound | combination Emax [1] | combination Emax [2] | combination Emax (MG-63 (Osteosarcoma)) | combination Emax [3] | combination Emax [4] | combination Emax [5] | combination Emax (A375 (Melanoma)) | combination Emax [6] | combination Emax [7] | combination Emax [8] | combination Emax [9] | combination Emax [10] | combination Emax [11] | Bliss excess [12] | Bliss excess [13] | Bliss excess [14] | Bliss excess [15] | Bliss excess (SK-MEL-24 (Melanoma)) | Bliss excess [16] | Bliss excess [17]
COc1cccc2c1C(=O)c1c(O)c3c(c(O)c1C2=O)C[C@@](O)(C(=O)CO)C[C@@H]3O[C@H]1C[C@H](N)[C@H](O)[C@H](C)O1 [Doxorubicin] + Cc1cc2ncnn2cc1Nc1ncc2c(n1)n(C1CCOCC1)c(=O)n2C [AZD7648] (first compound max 1 µM, 7x7, partner max 10 µM) | 0.196 | 0.282 | 0.896 | 0.848 | 0.695 | 0.825 | 0.949 | 0.598 | 0.933 | 0.781 | 0.735 | 0.968 | 0.634 | 0.0653 | 0.0782 | 0.0667 | 0.0792 | 0.0399 | 0.0456 | 0.0542
CS(=O)(=O)CCNCc1ccc(-c2ccc3ncnc(Nc4ccc(OCc5cccc(F)c5)c(Cl)c4)c3c2)o1 [Lapatinib] + C[C@@H](Oc1cc(-c2cnn(C3CCNCC3)c2)cnc1N)c1c(Cl)ccc(F)c1Cl [Crizotinib] (first compound max 10 µM, 7x7, partner max 10 µM) | 0.802 | 0.391 | 0.936 | 0.857 | 0.477 | 0.687 | 0.86 | 0.971 | 0.525 | 0.234 | 0.902 | 0.971 | 0.944 | -0.0506 | -0.0375 | 0.0039 | 0.003 | -0.118 | 0.0036 | -0.0428
CC(=O)c1c(C)c2cnc(Nc3ccc(N4CCNCC4)cn3)nc2n(C2CCCC2)c1=O [Palbociclib] + CC1(C)CCC(CN2CCN(c3ccc(C(=O)NS(=O)(=O)c4ccc(NCC5CCOCC5)c([N+](=O)[O-])c4)c(Oc4cnc5[nH]ccc5c4)c3)CC2)=C(c2ccc(Cl)cc2)C1 [Venetoclax] (first compound max 10 µM, 7x7, partner max 1 µM) | 0.603 | 0.12 | 0.345 | 0.451 | 0.37 | 0.348 | 0.195 | 0.325 | 0.287 | 0.116 | 0.261 | 0.613 | 0.0543 | -0.0543 | -0.0777 | 0.0006 | -0.0716 | -0.0586 | -0.0254 | -0.0254
CC(=O)c1c(C)c2cnc(Nc3ccc(N4CCNCC4)cn3)nc2n(C2CCCC2)c1=O [Palbociclib] + Cc1c2c(nn1C)CSCc1cc(n(C)n1)CSc1cc(c3ccccc3c1)OCCCc1c(C(=O)O)n(C)c3c-2c(Cl)ccc13 [AZD5991] (first compound max 10 µM, 7x7, partner max 1 µM) | 0.58 | 0.208 | 0.406 | 0.805 | 0.993 | 0.234 | 0.356 | 0.406 | 0.65 | 0.693 | 0.992 | 0.806 | 0.234 | -0.0567 | 0.0046 | -0.0691 | -0.112 | -0.0196 | -0.0084 | -0.0357
CC(=O)c1c(C)c2cnc(Nc3ccc(N4CCNCC4)cn3)nc2n(C2CCCC2)c1=O [Palbociclib] + Cn1cnc2c(F)c(Nc3ccc(Br)cc3Cl)c(C(=O)NOCCO)cc21 [Selumetinib] (first compound max 10 µM, 7x7, partner max 10 µM) | 0.646 | 0.219 | 0.431 | 0.491 | 0.438 | 0.209 | 0.705 | 0.543 | 0.0486 | 0.138 | 0.168 | 0.744 | 0.387 | -0.0264 | -0.0374 | 0.067 | 0.0361 | -0.031 | 0.0823 | -0.0041
COc1cccc(OCCCN)c1-c1cc(Nc2cnc(C#N)cn2)n[nH]1 [Prexasertib] + C=CCn1c(=O)c2cnc(Nc3ccc(N4CCN(C)CC4)cc3)nc2n1-c1cccc(C(C)(C)O)n1 [AZD1775] (first compound max 1 µM, partner max 1 µM) | 0.795 | 0.371 | 0.972 | 0.916 | 0.942 | 0.853 | 0.952 | 0.83 | 0.955 | 0.75 | 0.985 | 0.923 | 0.716 | 0.0914 | 0.0389 | 0.084 | 0.0271 | 0.112 | 0.0286 | 0.0404
COc1cccc(OCCCN)c1-c1cc(Nc2cnc(C#N)cn2)n[nH]1 [Prexasertib] + CCc1c2c(nc3ccc(O)cc13)-c1cc3c(c(=O)n1C2)COC(=O)[C@]3(O)CC [SN-38] (first compound max 1 µM, 7x7, partner max 0.3 µM) | 0.741 | 0.258 | 0.964 | 0.953 | 0.84 | 0.783 | 0.962 | 0.962 | 1 | 0.933 | 0.981 | 0.957 | 0.85 | 0.132 | -0.0152 | -0.0357 | -0.0109 | -0.0557 | 0.0114 | 0.108
COc1cccc(OCCCN)c1-c1cc(Nc2cnc(C#N)cn2)n[nH]1 [Prexasertib] + CN(C)CCCOc1ccc(-c2ccc3ncc4c(c3c2)n(C2CCOCC2)c(=O)n4C)cn1 [AZD0156] (first compound max 1 µM, 7x7, partner max 1 µM) | 0.716 | 0.275 | 0.906 | 0.842 | 0.81 | 0.806 | 0.851 | 0.768 | 0.685 | 0.453 | 0.976 | 0.8 | 0.315 | 0.019 | -0.0172 | -0.0201 | 0.0231 | 0.0017 | -0.0136 | 0.026
COc1cccc(OCCCN)c1-c1cc(Nc2cnc(C#N)cn2)n[nH]1 [Prexasertib] + C[C@@H]1COCCN1C2=NC(=NC(=C2)C3(CC3)[S@](=N)(=O)C)C4=C5C=CNC5=NC=C4 [AZD6738] (first compound max 1 µM, 7x7, partner max 10 µM) | 0.704 | 0.337 | 0.866 | 0.888 | 0.746 | 0.81 | 0.853 | 0.847 | 0.694 | 0.679 | 0.971 | 0.762 | 0.477 | 0.0846 | 0.001 | -0.0712 | 0.0056 | -0.0061 | -0.0445 | 0.0029
COc1cccc(OCCCN)c1-c1cc(Nc2cnc(C#N)cn2)n[nH]1 [Prexasertib] + Cc1cc2ncnn2cc1Nc1ncc2c(n1)n(C1CCOCC1)c(=O)n2C [AZD7648] (first compound max 1 µM, 7x7, partner max 10 µM) | 0.704 | 0.294 | 0.921 | 0.84 | 0.803 | 0.801 | 0.877 | 0.762 | 0.735 | 0.388 | 0.966 | 0.755 | 0.477 | -0.027 | -0.0127 | -0.0198 | 0.0485 | 0.0054 | -0.0609 | 0.041
COc1cccc(OCCCN)c1-c1cc(Nc2cnc(C#N)cn2)n[nH]1 [Prexasertib] + O=C(c1cc(Cc2n[nH]c(=O)c3ccccc23)ccc1F)N1CCN(C(=O)C2CC2)CC1 [Olaparib] (first compound max 1 µM, 7x7, partner max 10 µM) | 0.601 | 0.371 | 0.822 | 0.777 | 0.674 | 0.801 | 0.815 | 0.802 | 0.894 | 0.646 | 0.978 | 0.744 | 0.548 | -0.0185 | -0.0292 | -0.0533 | -0.0042 | -0.0381 | 0.0051 | 0.0284
CCc1c2c(nc3ccc(O)cc13)-c1cc3c(c(=O)n1C2)COC(=O)[C@]3(O)CC [SN-38] + CN(C)CCCOc1ccc(-c2ccc3ncc4c(c3c2)n(C2CCOCC2)c(=O)n4C)cn1 [AZD0156] (first compound max 0.3 µM, 7x7, partner max 1 µM) | 0.634 | 0.224 | 0.906 | 0.942 | 0.803 | 0.834 | 0.993 | 0.875 | 0.968 | 0.95 | 0.626 | 0.919 | 0.639 | 0.126 | 0.073 | 0.0303 | 0.0551 | 0.0267 | -0.0451 | 0.006
CCc1c2c(nc3ccc(O)cc13)-c1cc3c(c(=O)n1C2)COC(=O)[C@]3(O)CC [SN-38] + O=C(c1cc(Cc2n[nH]c(=O)c3ccccc23)ccc1F)N1CCN(C(=O)C2CC2)CC1 [Olaparib] (first compound max 0.3 µM, 7x7, partner max 10 µM) | 0.473 | 0.224 | 0.896 | 0.926 | 0.868 | 0.857 | 0.949 | 0.915 | 0.987 | 0.979 | 0.688 | 0.979 | 0.702 | 0.14 | 0.0767 | 0.0064 | 0.0401 | 0.0007 | 0.0133 | 0.0248
